Data taken from the supplement of paper PMC8149375.

Columns and labels:
Settings in all cases: treatment: drug alone; 5 days
[1] = tested on: 769-P; test: GI50, drug alone; higher = less potent
Description: (§1)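 Primary HTS: 8 RCC cell lines treated with 8 doses (up to 10 uM) of each library drug alone for 5 days; viability read by CellTiter-Glo and normalised to DMSO. GI50 was fitted with XLfit (4-parameter), AUC is the area under the dose-response curve, and minimum viability is the lowest fraction of DMSO viability across doses.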

[2] = tested on: 786-O; test: GI50, drug alone; higher = less potent
Description: as §1

[3] = tested on: A498; test: GI50, drug alone; higher = less potent
Description: as §1

[4] = tested on: ACHN; test: GI50, drug alone; higher = less potent
Description: as §1

[5] = tested on: CAKI-1; test: GI50, drug alone; higher = less potent
Description: as §1

[6] = tested on: SN12C; test: GI50, drug alone; higher = less potent
Description: as §1

[7] = tested on: TK-10; test: GI50, drug alone; higher = less potent
Description: as §1

[8] = tested on: UO-31; test: GI50, drug alone; higher = less potent
Description: as §1

[9] = tested on: 769-P; test: minimum viability across doses, drug alone, relative to DMSO (fraction); higher = less growth inhibition
Description: as §1

[10] = tested on: 786-O; test: as above
Description: as §1

[11] = tested on: A498; test: as above
Description: as §1

[12] = tested on: ACHN; test: as above
Description: as §1

[13] = tested on: CAKI-1; test: as above
Description: as §1

[14] = tested on: SN12C; test: as above
Description: as §1

[15] = tested on: TK-10; test: as above
Description: as §1

[16] = tested on: UO-31; test: as above
Description: as §1

[17] = tested on: 769-P; test: AUC of dose-response viability curve, drug alone (arbitrary (AUC of normalised viability)); higher = less growth inhibition
Description: as §1

[18] = tested on: 786-O; test: as above
Description: as §1

[19] = tested on: A498; test: as above
Description: as §1

[20] = tested on: ACHN; test: as above
Description: as §1

[21] = tested on: CAKI-1; test: as above
Description: as §1

[22] = tested on: SN12C; test: as above
Description: as §1

[23] = tested on: TK-10; test: as above
Description: as §1

[24] = tested on: UO-31; test: as above
Description: as §1

Structure (SMILES)	GI50, drug alone [2] [µM]	GI50, drug alone [4] [µM]	GI50, drug alone [1] [µM]	GI50, drug alone [3] [µM]	GI50, drug alone [5] [µM]	GI50, drug alone [6] [µM]	GI50, drug alone [7] [µM]	GI50, drug alone [8] [µM]	minimum viability across doses [9]	minimum viability across doses [10]	minimum viability across doses [11]	minimum viability across doses [12]	minimum viability across doses [13]	minimum viability across doses [14]	minimum viability across doses [15]	minimum viability across doses [16]	AUC of dose-response viability curve [17]	AUC of dose-response viability curve [18]	AUC of dose-response viability curve [19]	AUC of dose-response viability curve [20]	AUC of dose-response viability curve [21]	AUC of dose-response viability curve [22]	AUC of dose-response viability curve [23]	AUC of dose-response viability curve [24]
COc1cc2nccc(Oc3ccc(NC(=O)NC4CC4)c(Cl)c3)c2cc1C(N)=O [E7080 (Lenvatinib)]	> 10	> 10	> 10	> 10	2.27	> 10	> 10	> 10	0.907	0.786	0.941	0.532	0.267	0.734	0.806	1.18	3.46	3.13	3.79	3.06	2.71	3.21	3.24	2.25
Cc1nc(NC(=O)N2CCC[C@H]2C(N)=O)sc1-c1csc(C(C)(C)C)n1 [A66]	5.72	> 10	> 10	> 10	> 10	> 10	> 10	> 10	0.823	0.418	0.787	0.803	0.805	0.659	0.631	0.757	3.33	2.57	3.34	3.42	3.36	2.94	2.93	3.47
COc1ccc(-c2cc3c(C)nc(N)nc3n([C@H]3CC[C@H](OCCO)CC3)c2=O)cn1	0.163	0.179	0.386	1.02	0.206	0.291	0.153	0.255	0.0177	0.00335	0.193	0.067	0.0249	0.0766	0.0289	0.00736	2.05	1.76	2.91	1.79	1.78	1.98	1.72	2.06
NCC(=O)Nc1ccc(-n2nc(C(F)(F)F)cc2-c2ccc3c(ccc4ccccc43)c2)cc1	1.62	4.51	3.77	3.22	4.52	4.07	4.25	0.928	0.0386	0.00641	0.0189	0.0447	0.0096	0.00771	0.326	0.00932	2.96	2.29	3.01	3.11	3.25	3.13	2.74	2.76
Oc1cc(O)cc(/C=C/c2ccc(O)c(O)c2)c1 [Piceatannol]	2.37	> 10	> 10	> 10	7.74	> 10	> 10	> 10	0.849	0.383	1.05	0.67	0.33	0.712	0.685	0.908	2.35	2.54	4.25	3.28	3.58	3.18	3.2	5.06
CNC(=O)Nc1ccc(-c2nc(N3CC4CCC(C3)O4)c3cnn(C4CCC5(CC4)OCCO5)c3n2)cc1	0.0414	0.0587	0.122	0.23	0.0567	0.0971	0.0812	0.0343	0.101	0.00279	0.09	0.0487	0.042	0.126	0.0905	0.00242	1.66	1.25	2.28	1.4	1.31	1.64	1.52	1.01
COC1=CC(c2cc3ccccc3[nH]2)=N/C1=C\c1[nH]c(C)cc1C.CS(=O)(=O)O [Obatoclax mesylate (GX15-070)]	0.00753	0.0811	0.309	0.438	0.379	0.213	0.185	0.158	0.0323	0.0051	0.00496	0.0118	0.011	0.00313	0.17	0.00526	2.01	0.668	1.95	1.41	2.23	1.74	1.79	2.07
C=CC(=O)N1CCC[C@@H](n2nc(-c3ccc(Oc4ccccc4)cc3)c3c(N)ncnc32)C1	> 10	3.93	1.83	> 10	7.05	> 10	1.43	> 10	0.301	0.529	0.946	0.394	0.335	0.706	0.225	0.949	2.53	2.3	6.43	2.53	3.19	2.88	2.31	4.29
Cn1cc(-c2ccc3nnc(Sc4ccc5ncccc5c4)n3n2)cn1 [SGX-523]	> 10	> 10	> 10	> 10	> 10	> 10	> 10	> 10	0.776	0.56	0.855	0.725	0.806	0.746	0.775	1.01	3.22	2.77	3.75	3.23	3.18	3.21	3.06	3.83
CCS(=O)(=O)N1CC(CC#N)(n2cc(-c3ncnc4[nH]ccc34)cn2)C1	> 10	> 10	> 10	> 10	> 10	> 10	> 10	> 10	0.953	0.619	1.07	0.758	0.926	0.885	0.817	1.11	3.62	3.07	4.43	3.17	3.58	3.36	3.09	4.72

More lines, main results first:

GI50, drug alone [2] [µM]	GI50, drug alone [4] [µM]	Structure (SMILES)	GI50, drug alone [1] [µM]	GI50, drug alone [3] [µM]	GI50, drug alone [5] [µM]	GI50, drug alone [6] [µM]	GI50, drug alone [7] [µM]	GI50, drug alone [8] [µM]	minimum viability across doses [9]	minimum viability across doses [10]	minimum viability across doses [11]	minimum viability across doses [12]	minimum viability across doses [13]	minimum viability across doses [14]	minimum viability across doses [15]	minimum viability across doses [16]	AUC of dose-response viability curve [17]	AUC of dose-response viability curve [18]	AUC of dose-response viability curve [19]	AUC of dose-response viability curve [20]	AUC of dose-response viability curve [21]	AUC of dose-response viability curve [22]	AUC of dose-response viability curve [23]	AUC of dose-response viability curve [24]
0.179	0.0785	Cc1nc(Nc2ncc(C(=O)Nc3c(C)cccc3Cl)s2)cc(N2CCN(CCO)CC2)n1	0.149	> 10	0.0788	2.3	0.0257	0.135	0.0457	0.0837	0.631	0.0527	0.0431	0.377	0.0612	0.0768	1.7	1.9	3.35	1.52	1.45	2.35	1.11	1.93
8.42	> 10	CS(=O)(=O)O.Cc1ccc(NC(=O)c2ccc(CN3CCN(C)CC3)cc2)cc1Nc1nccc(-c2cccnc2)n1 [Imatinib Mesylate]	> 10	> 10	> 10	> 10	> 10	> 10	0.898	0.399	0.973	0.855	0.965	0.775	0.861	1.1	3.45	2.83	3.89	3.71	3.61	3.55	3.25	5.21
6.61	> 10	C[C@@H]1CN(CC(=O)Nc2ccc3c(c2)Cc2cccc(-c4cc(=O)cc(N5CCOCC5)o4)c2S3)C[C@H](C)O1	> 10	> 10	4	> 10	> 10	> 10	0.855	0.35	0.893	0.548	0.224	0.646	0.701	1.35	3.53	3.37	4.69	3.15	2.8	3.35	3.25	6.19
> 10	> 10	Cc1cn(-c2cc(NC(=O)c3ccc(C)c(Nc4nccc(-c5cccnc5)n4)c3)cc(C(F)(F)F)c2)cn1 [Nilotinib (AMN-107)]	> 10	> 10	> 10	> 10	> 10	> 10	0.93	0.827	0.788	0.797	0.763	0.877	0.56	0.654	3.46	3.8	4.05	3.32	3.76	3.37	2.96	4.08
0.501	5.69	CN(C)CC[C@H](CSc1ccccc1)Nc1ccc(S(=O)(=O)NC(=O)c2ccc(N3CCN(Cc4ccccc4-c4ccc(Cl)cc4)CC3)cc2)cc1[N+](=O)[O-] [ABT-737]	9.18	5.36	> 10	> 10	4.57	3.08	0.305	0.00151	0.1	0.206	0.952	0.625	0.253	0.00414	3.47	1.66	3.25	2.88	3.76	3.25	2.43	4.03
1.32	1.14	COc1cc2c(Oc3ccc(NC(=O)C4(C(=O)Nc5ccc(F)cc5)CC4)cc3F)ccnc2cc1OCCCN1CCOCC1	2.91	3.26	0.575	1.2	1.07	2.91	0.0122	0.00765	0.0481	0.00485	0.00629	0.0104	0.00697	0.0119	2.75	2.39	3.15	2.6	2.12	2.34	2.37	3.04
4.16	3.83	Cc1[nH]c(/C=C2\C(=O)Nc3ccc(S(=O)(=O)Cc4c(Cl)cccc4Cl)cc32)c(C)c1C(=O)N1CCC[C@@H]1CN1CCCC1	4.02	8.15	3.83	4.02	4.44	> 10	0.00582	0.0112	0.0127	0.00233	0.00618	0.00551	0.00282	0.0156	2.89	2.86	3.88	3.18	3.17	2.93	3.12	4.41
> 10	> 10	CCc1cc(Nc2nccc(-c3c(-c4ccc(OC)c(C(=O)Nc5c(F)cccc5F)c4)nc4ccccn34)n2)c(OC)cc1N1CCC(N2CCN(S(C)(=O)=O)CC2)CC1	> 10	> 10	> 10	> 10	> 10	> 10	0.828	0.785	1.04	0.804	0.635	0.858	0.865	1	3.26	3.37	4.54	3.03	3.12	3.17	3.23	5.43
